For 3 compounds, melting point results are on record in patent publication US20090105220A1, “PROCESS FOR THE PREPARATION OF NONPEPTIDE SUBSTITUTED SPIROBENZOAZEPINE DERIVATIVES” (priority 2003, published 2009).

As a reminder, the melting point is the temperature of the solid-liquid transition.

Where a name gives a salt, the structure may show the parent alone.

The compound `O=C(O)C1=C[C@@]2(CC1)CCN(C(=O)c1ccc(NC(=O)c3ccccc3-c3ccccc3)cc1)c1ccccc1C2` showed a melting point of 263 to 265 °C. With `CN(C)CCNC(=O)C1=C[C@@]2(CC1)CCN(C(=O)c1ccc(NC(=O)c3ccccc3-c3ccccc3)cc1)c1ccccc1C2.O=C(O)c1ccccc1` the figure was 180 to 185 °C (dec.); with `CN(C)CCNC(=O)C1=C[C@@]2(CC1)CCN(C(=O)c1ccc(NC(=O)c3ccccc3F)cc1)c1ccccc1C2` (as salt: phosphate), 148 to 158 °C (dec.).
